Legend:
[1] = tested on: MCF-7 cells; assay: MTT cell viability assay, MCF-7 cells; type: cell-based; details: Homo sapiens, MCF7, 72 h, mean ± SD of 3 experiments; for GI50: read-out: GI50 (50% growth inhibition concentration), MCF-7 cells; for CC50: read-out: LC50 (50% lethal concentration), MCF-7 cells
Protocol: (§1) HCT 116 and MCF-7 cells were seeded in 96-well plates at a density of 1 × 10^4 cells/well and allowed to grow for 20-24 h before addition of test compounds. DMSO stocks of indolin-2-one compounds were serially diluted in medium each time an assay was performed. Cell viability was determined at the time of compound addition (time 0) and after 72 h of compound treatment by reduction of 3-(4,5-dimethylthiazol-2-yl)-2,5-diphenyltetrazolium bromide (MTT) by dehydrogenases in viable cells. MTT was added into each well (final concentration 400 μg/ml) and the plates were incubated for 4 h at 37°C. The supernatants were aspirated and upon solubilization of the formed formazan crystals in DMSO:glycine buffer pH 10.5 (ratio 4:1), absorbance at 550 nm was measured. 50% growth inhibition concentrations (GI50) and 50% lethal concentrations (LC50) values were calculated.

[2] = tested on: HCT 116 cells; assay: MTT cell viability assay, HCT 116 cells; type: cell-based; details: Homo sapiens, 72 h, mean ± SD of 3 experiments; for GI50: read-out: GI50 (50% growth inhibition concentration), HCT 116 cells
Protocol: as §1

[3] = target: T1, TrxR in MCF-7 cells (Homo sapiens, UniProt Q16881); assay: cellular TrxR activity in MCF-7 cell lysates (insulin reduction assay); type: cell-based; details: for cellular TrxR activity, MCF-7 cells: 10 h treatment, 20, 30, 40 and 50 μM
T1 construct: Lysates of MCF-7 cells treated with indicated concentrations of selected SCA analogs for 10 h; endogenous in cells; host or cells: MCF-7
T1 sequence (Q16881 1-499 isoform Q16881-5): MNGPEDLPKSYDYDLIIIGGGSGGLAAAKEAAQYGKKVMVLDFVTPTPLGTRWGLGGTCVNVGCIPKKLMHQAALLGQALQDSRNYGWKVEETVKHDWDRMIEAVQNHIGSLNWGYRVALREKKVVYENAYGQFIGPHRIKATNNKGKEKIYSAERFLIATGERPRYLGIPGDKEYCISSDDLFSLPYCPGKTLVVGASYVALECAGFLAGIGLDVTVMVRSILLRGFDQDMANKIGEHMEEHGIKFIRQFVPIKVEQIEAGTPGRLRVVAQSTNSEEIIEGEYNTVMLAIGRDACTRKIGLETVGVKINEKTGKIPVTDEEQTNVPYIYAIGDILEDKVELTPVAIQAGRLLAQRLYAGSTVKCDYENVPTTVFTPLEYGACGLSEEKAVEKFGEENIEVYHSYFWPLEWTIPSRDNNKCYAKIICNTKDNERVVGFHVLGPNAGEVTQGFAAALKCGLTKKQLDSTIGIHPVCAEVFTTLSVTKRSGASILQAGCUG
Protocol: (§2) Cells were seeded onto 100 mm or 60 mm culture plates and upon reaching ~70% confluency, they were subjected to drug treatment for indicated durations. Pellets of compound-treated or DMSO control cells comprising both attached and floating cells were collected and lysed in lysis buffer (25 mM Tris-HCl pH 7.5, 100 mM NaCl, 2.5 mM EDTA, 2.5 mM EGTA, 20 mM NaF, 1 mM Na3VO4, 20 mM sodium β-glycerophosphate, 10 mM sodium pyrophosphate, 0.5% Triton X-100) with freshly added protease inhibitor cocktail (Roche Diagnostics). Prior to being used in Western blot analysis and/or cellular TrxR, GR, Trx and GPx activity determination, lysates were precleared by centrifugation and protein concentrations were determined using a modified Bradford assay (Bio-Rad Laboratories) as described in the manufacturer's manual. This procedure for collecting whole cell lysate was used for all experiments except for the Trx-redox state determination experiment. Equal amounts of protein (50 μg) in each lysate sample were separated by SDS-PAGE, followed by electroblotting onto nitrocellulose membranes. Electroblotted proteins on membranes were probed with a primary antibody and subsequently by a secondary antibody conjugated to HRP.
(§3) Freshly collected cell lysates were used for measurement of activity of cellular Trx and TrxR. To measure TrxR activity, in each well of a 96-well plate, 25 μg of cell lysate was incubated in a final volume of 50 μl containing 85 mM Hepes (pH 7.6), 0.3 mM insulin, 10 μM rhTrx1, 2.5 mM EDTA and 660 μM NADPH for 40 min at 37°C. Controls containing lysates and all reaction reagents except rhTrx1 for each lysate sample were also set up. 200 μl of 1 mM DTNB in 6 M guanidine-HCl, 200 mM Tris-HCl pH 8.0 solution was added to quench the reaction. The amount of free thiols generated from insulin reduction was determined by DTNB reduction at 412 nm using the VersaMax microplate reader. To measure Trx activity, procedures were carried out similar to those for determining cellular TrxR activity, except that the cell lysates were incubated for 20 min with 300 nM recombinant rat TrxR in place of rhTrx1. Controls containing lysates and all reaction reagents except recombinant rat TrxR for each lysate sample were also set up. For each sample, Trx or TrxR activity was calculated as the absorbance at 412 nm subtracted from that of the corresponding control and expressed as a percentage of the activity measured in DMSO-treated cells.

[4] = target: T2, TrxR in HCT 116 cells (Homo sapiens, UniProt Q16881); assay: cellular TrxR activity in HCT 116 cell lysates (insulin reduction assay); type: cell-based; details: for cellular TrxR activity, HCT 116 cells: 10 h treatment, 20, 30, 40 and 50 μM
T2 construct: Lysates of HCT 116 cells treated with indicated concentrations of selected SCA analogs for 10 h; endogenous in cells; host or cells: HCT 116
T2 sequence (Q16881 1-499 isoform Q16881-5): T1 sequence (Q16881 1-499 isoform Q16881-5)
Protocol: as §2, §3

[5] = target: T3, bovine GPx (Bos taurus, UniProt P00435); assay: in vitro bovine GPx activity assay; type: biochemical; details: 60 min incubation, 1-100 μM, 100 nM bovine GPx
T3 construct: purchased Sigma
T3 sequence (P00435 1-205): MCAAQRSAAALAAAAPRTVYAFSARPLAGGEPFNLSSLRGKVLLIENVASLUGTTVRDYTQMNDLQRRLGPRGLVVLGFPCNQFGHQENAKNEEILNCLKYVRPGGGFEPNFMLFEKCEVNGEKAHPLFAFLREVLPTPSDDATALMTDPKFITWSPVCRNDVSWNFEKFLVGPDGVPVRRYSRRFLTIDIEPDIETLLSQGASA
Protocol: For determination of in vitro bovine GPx activity, compounds of concentrations 1-100 μM were incubated with 100 nM bovine GPx, 20 nM yeast GR, 1 mM GSH and 200 μM NADPH in a volume of 100 μl phosphate buffer (0.1 M sodium phosphate, 2 mM EDTA pH 7.5) for 1 h at room temperature. H2O2 solution in phosphate buffer was added to initiate the reaction (final concentration 1.5 mM). NADPH consumption was monitored at 340 nm using the VersaMax microplate reader. The cellular GPx activity was determined similarly except lysates of HCT 116 and MCF-7 cells (25 μg protein) were used instead of bovine GPx. The results were calculated based on decrease in absorbance in the initial 3 min and presented as % of GPx activity of drug-treated sample over that of DMSO-treated sample.

[6] = 10 h treatment, 40 and 50 μM, p < 0.05 vs DMSO

Row | Compound | GI50 [1] [µM] | CC50 [1] [µM] | GI50 [2] [µM] | cellular TrxR activity, MCF-7 cells [3] | cellular TrxR activity, HCT 116 cells [4] | bovine GPx activity [5] | LC50 (50% lethal concentration) [2] [µM] | cellular TrxR activity at 40 and 50 μM, MCF-7 cells [3, 6] | cellular TrxR activity at 40 and 50 μM, HCT 116 cells [4, 6]
1 | CC(=O)C=C1C(=O)N(C)c2ccccc21 [Compound 1, 1-methyl-3(2-oxopropylidene)indolin-2-one] | 15.1 ± 4.1 | 27.6 ± 0.4 | 11.8 ± 3.3 | did not cause apparent inhibition | did not cause apparent inhibition | uninhibited | – | – | –
2 | CCCCN1C(=O)/C(=C/C(C)=O)c2ccccc21 [Compound 4] | 6.4 ± 1.5 | 22.4 ± 3.6 | 4.5 ± 0.9 | decrease in TrxR activity in a dose-dependent manner | decrease in TrxR activity in a dose-dependent manner | uninhibited | 9.7 ± 0.2 | – | –
3 | CC(=O)/C=C1/C(=O)N(Cc2ccccc2)c2ccccc21 [Compound 5] | 4.5 ± 0.6 | 9.6 ± 0.2 | 3.2 ± 0.1 | decrease in TrxR activity in a dose-dependent manner | decrease in TrxR activity in a dose-dependent manner | uninhibited | 9.4 ± 0.3 | significant reduction | significant reduction
4 | CN1C(=O)/C(=C/C(=O)c2ccccc2)c2ccccc21 [Compound 6] | 14 ± 3.7 | 27.1 ± 0.5 | 8.5 ± 0.8 | did not cause apparent inhibition | did not cause apparent inhibition | uninhibited | 27.2 ± 2.4 | – | –

Source: PMC5130005, “Indolin-2-one compounds targeting thioredoxin reductase as potential anticancer drug leads” (Oncotarget, 2016)
